Measured values reported in patent US12539292B2, “BRM targeting compounds and associated methods of use” (Arvinas Operations, Inc., priority 2018, dated 2026).

Target: T1, BRM (Homo sapiens, UniProt P51531)
T1 construct: In-Cell Western Screen of BRM Degradation in SW1573 Cells; endogenous in cells; host or cells: SW1573
Test: In-cell Western screen of BRM degradation in SW1573 cells (Dmax and DC50)
Assay type: cell-based
Details: BRM degradation, SW1573 cells; for DC50: read-out: DC50; for Dmax: when tested at the top concentration of between 0.3 and 10 μM, read-out: Dmax (%) (% degraded)
Summary of the method: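 Near-infrared imaging on a LI-COR Odyssey (800 and 680 nm channels) quantifies BRM remaining in fixed SW1573 cells. Cells are dosed for 18-20 h at 0.1% final DMSO, and degradation is expressed as Dmax and DC50.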

T1 sequence (P51531 whole entry): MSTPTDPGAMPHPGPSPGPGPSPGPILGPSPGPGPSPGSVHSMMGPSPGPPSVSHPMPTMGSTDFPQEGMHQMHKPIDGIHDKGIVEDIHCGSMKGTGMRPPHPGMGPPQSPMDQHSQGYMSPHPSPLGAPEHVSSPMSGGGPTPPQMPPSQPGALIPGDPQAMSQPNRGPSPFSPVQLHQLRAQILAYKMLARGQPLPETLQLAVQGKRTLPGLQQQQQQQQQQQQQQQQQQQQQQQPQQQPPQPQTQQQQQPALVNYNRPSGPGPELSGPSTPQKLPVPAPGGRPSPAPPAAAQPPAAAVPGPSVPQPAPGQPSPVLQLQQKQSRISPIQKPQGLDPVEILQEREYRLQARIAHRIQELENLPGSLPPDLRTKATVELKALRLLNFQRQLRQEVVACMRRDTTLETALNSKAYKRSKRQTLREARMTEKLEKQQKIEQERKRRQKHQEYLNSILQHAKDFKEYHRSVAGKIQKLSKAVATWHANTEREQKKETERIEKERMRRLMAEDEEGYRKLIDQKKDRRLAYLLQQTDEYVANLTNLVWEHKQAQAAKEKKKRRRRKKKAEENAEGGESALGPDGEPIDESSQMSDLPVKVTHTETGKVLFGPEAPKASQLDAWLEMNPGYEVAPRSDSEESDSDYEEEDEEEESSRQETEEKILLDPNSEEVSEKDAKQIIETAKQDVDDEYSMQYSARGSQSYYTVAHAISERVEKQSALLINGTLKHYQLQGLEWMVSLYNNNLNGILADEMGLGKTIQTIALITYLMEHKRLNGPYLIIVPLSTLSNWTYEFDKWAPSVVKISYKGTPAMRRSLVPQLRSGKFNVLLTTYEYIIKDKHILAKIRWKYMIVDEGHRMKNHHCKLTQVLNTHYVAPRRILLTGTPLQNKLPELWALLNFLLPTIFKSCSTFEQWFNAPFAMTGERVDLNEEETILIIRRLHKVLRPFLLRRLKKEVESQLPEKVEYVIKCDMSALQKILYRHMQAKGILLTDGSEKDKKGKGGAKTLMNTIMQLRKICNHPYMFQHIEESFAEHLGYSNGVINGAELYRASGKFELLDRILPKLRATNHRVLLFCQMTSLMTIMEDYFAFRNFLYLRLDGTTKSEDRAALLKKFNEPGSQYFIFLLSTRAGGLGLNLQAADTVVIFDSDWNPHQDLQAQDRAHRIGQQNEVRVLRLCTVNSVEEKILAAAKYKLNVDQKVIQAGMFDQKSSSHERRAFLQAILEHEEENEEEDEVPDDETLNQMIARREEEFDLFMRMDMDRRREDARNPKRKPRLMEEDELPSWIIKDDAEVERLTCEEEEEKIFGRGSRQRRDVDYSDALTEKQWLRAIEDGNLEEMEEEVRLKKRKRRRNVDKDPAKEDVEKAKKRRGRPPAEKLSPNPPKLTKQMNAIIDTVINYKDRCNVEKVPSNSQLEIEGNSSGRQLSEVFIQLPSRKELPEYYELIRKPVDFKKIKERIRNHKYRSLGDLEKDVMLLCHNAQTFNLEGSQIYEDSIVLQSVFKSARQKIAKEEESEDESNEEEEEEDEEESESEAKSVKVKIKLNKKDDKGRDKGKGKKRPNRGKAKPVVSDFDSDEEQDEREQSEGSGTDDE

DC50 [nM]	Dmax [%]	SMILES
< 2.5	> 75	Cc1ncsc1-c1ccc([C@H](C)NC(=O)[C@@H]2C[C@@H](O)CN2C(=O)[C@@H](c2cc(OCCOc3ccc(C(C)n4cc(-c5cc(-c6ccccc6O)nnc5N)cn4)cc3)no2)C(C)C)cc1 (stereo partly drawn) [compound 81, (2S,4R)-1-((2R)-2-(3-(2-(4-(1-(4-(3-amino-6-(2-hydroxyphenyl)pyridazin-4-yl)-1H-pyrazol-1-yl)ethyl)phenoxy)ethoxy)isoxazol-5-yl)-3-methylbutanoyl)-4-hydroxy-N-((S)-1-(4-(4-methylthiazol-5-yl)phenyl)ethyl)pyrrolidine-2-carboxamide]
< 2.5	> 75	Cc1ncsc1-c1ccc([C@H](C)NC(=O)[C@@H]2C[C@@H](O)CN2C(=O)[C@@H](c2cc(OCCOc3ccc(C(C)n4cc(-c5cc(-c6ccccc6O)nnc5N)cn4)cn3)no2)C(C)C)cc1 (stereo partly drawn) [compound 82, (2S,4R)-1-((2R)-2-(3-(2-((5-(1-(4-(3-amino-6-(2-hydroxyphenyl)pyridazin-4-yl)-1H-pyrazol-1-yl)ethyl)pyridin-2-yl)oxy)ethoxy)isoxazol-5-yl)-3-methylbutanoyl)-4-hydroxy-N-((S)-1-(4-(4-methylthiazol-5-yl)phenyl)ethyl)pyrrolidine-2-carboxamide]
< 2.5	> 75	Cc1ncsc1-c1ccc([C@H](C)NC(=O)[C@@H]2C[C@@H](O)CN2C(=O)[C@@H](c2cc(OCCN3CCN(Cc4ccc(C(C)n5cc(-c6cc(-c7ccccc7O)nnc6N)cn5)cc4)CC3)no2)C(C)C)cc1 (stereo partly drawn) [compound 83, (2S,4R)-1-((2R)-2-(3-(2-(4-(4-(1-(4-(3-amino-6-(2-hydroxyphenyl)pyridazin-4-yl)-1H-pyrazol-1-yl)ethyl)benzyl)piperazin-1-yl)ethoxy)isoxazol-5-yl)-3-methylbutanoyl)-4-hydroxy-N-((S)-1-(4-(4-methylthiazol-5-yl)phenyl)ethyl)pyrrolidine-2-carboxamide]
< 2.5	> 75	Cc1ncsc1-c1ccc([C@H](C)NC(=O)[C@@H]2C[C@@H](O)CN2C(=O)[C@@H](c2cc(OCCN3CCN(CCCCN4CCOC5(CCN(c6cc(-c7ccccc7O)nnc6N)CC5)C4)CC3)no2)C(C)C)cc1 [compound 91, (2S,4R)-1-((R)-2-(3-(2-(4-(4-(9-(3-amino-6-(2-hydroxyphenyl)pyridazin-4-yl)-1-oxa-4,9-diazaspiro[5.5]undecan-4-yl)butyl)piperazin-1-yl)ethoxy)isoxazol-5-yl)-3-methylbutanoyl)-4-hydroxy-N-((S)-1-(4-(4-methylthiazol-5-yl)phenyl)ethyl)pyrrolidine-2-carboxamide]
< 2.5	> 75	Cc1ncsc1-c1ccc([C@H](C)NC(=O)[C@@H]2C[C@@H](O)CN2C(=O)[C@@H](c2cc(OCCN3CCC4(CC3)CC(OCCN3CCOC5(CCN(c6cc(-c7ccccc7O)nnc6N)CC5)C3)C4)no2)C(C)C)cc1 [compound 93, (2S,4R)-1-((R)-2-(3-(2-(2-(2-(9-(3-amino-6-(2-hydroxyphenyl)pyridazin-4-yl)-1-oxa-4,9-diazaspiro[5.5]undecan-4-yl)ethoxy)-7-azaspiro[3.5]nonan-7-yl)ethoxy)isoxazol-5-yl)-3-methylbutanoyl)-4-hydroxy-N-((S)-1-(4-(4-methylthiazol-5-yl)phenyl)ethyl)pyrrolidine-2-carboxamide]
< 2.5	> 75	Cc1ncsc1-c1ccc([C@H](C)NC(=O)[C@@H]2C[C@@H](O)CN2C(=O)[C@@H](c2cc(CCCOCCOCCOCCn3cc(-c4cc(-c5ccccc5O)nnc4N)cn3)no2)C(C)C)cc1 [compound 110, (2S,4R)-1-((R)-2-(3-(3-(2-(2-(2-(4-(3-amino-6-(2-hydroxyphenyl)pyridazin-4-yl)-1H-pyrazol-1-yl)ethoxy)ethoxy)ethoxy)propyl)isoxazol-5-yl)-3-methylbutanoyl)-4-hydroxy-N-((S)-1-(4-(4-methylthiazol-5-yl)phenyl)ethyl)pyrrolidine-2-carboxamide]
< 2.5	> 75	Cc1ncsc1-c1ccc([C@H](C)NC(=O)[C@@H]2C[C@@H](O)CN2C(=O)[C@@H](c2cc(OCCN3CCN(CCC#CCn4cc(-c5cc(-c6ccccc6O)nnc5N)cn4)CC3)no2)C(C)C)cc1 [compound 112, (2S,4R)-1-((R)-2-(3-(2-(4-(5-(4-(3-amino-6-(2-hydroxyphenyl)pyridazin-4-yl)-1H-pyrazol-1-yl)pent-3-yn-1-yl)piperazin-1-yl)ethoxy)isoxazol-5-yl)-3-methylbutanoyl)-4-hydroxy-N-((S)-1-(4-(4-methylthiazol-5-yl)phenyl)ethyl)pyrrolidine-2-carboxamide]
< 2.5	> 75	Cc1ncsc1-c1ccc([C@H](C)NC(=O)[C@@H]2C[C@@H](O)CN2C(=O)[C@@H](c2cc(OCCN3CCN(CC#CCn4cc(-c5cc(-c6ccccc6O)nnc5N)cn4)CC3)no2)C(C)C)cc1 [compound 113, (2S,4R)-1-((R)-2-(3-(2-(4-(4-(4-(3-amino-6-(2-hydroxyphenyl)pyridazin-4-yl)-1H-pyrazol-1-yl)but-2-yn-1-yl)piperazin-1-yl)ethoxy)isoxazol-5-yl)-3-methylbutanoyl)-4-hydroxy-N-((S)-1-(4-(4-methylthiazol-5-yl)phenyl)ethyl)pyrrolidine-2-carboxamide]

SMILES	DC50 [nM]	Dmax [%]
Cc1nccn1-c1ccc([C@H](C)NC(=O)[C@@H]2C[C@@H](O)CN2C(=O)[C@H](c2cc(OCCN3CCN(CCOc4cc(N5C6CCC5CN(c5cc(-c7ccccc7O)nnc5N)C6)ccn4)CC3)no2)C(C)C)cc1 [compound 75, (2S,4R)-1-((2S)-2-(3-(2-(4-(2-((4-(3-(3-amino-6-(2-hydroxyphenyl)pyridazin-4-yl)-3,8-diazabicyclo[3.2.1]octan-8-yl)pyridin-2-yl)oxy)ethyl)piperazin-1-yl)ethoxy)isoxazol-5-yl)-3-methylbutanoyl)-4-hydroxy-N-((S)-1-(4-(2-methyl-1H-imidazol-1-yl)phenyl)ethyl)pyrrolidine-2-carboxamide]	10 to 30	> 75
Cc1nccn1-c1ccc([C@H](C)NC(=O)[C@@H]2C[C@@H](O)CN2C(=O)[C@@H](c2cc(OCCN3CCN(CCOc4cc(N5C6CCC5CN(c5cc(-c7ccccc7O)nnc5N)C6)ccn4)CC3)no2)C(C)C)cc1 [compound 76, (2S,4R)-1-((2R)-2-(3-(2-(4-(2-((4-(3-(3-amino-6-(2-hydroxyphenyl)pyridazin-4-yl)-3,8-diazabicyclo[3.2.1]octan-8-yl)pyridin-2-yl)oxy)ethyl)piperazin-1-yl)ethoxy)isoxazol-5-yl)-3-methylbutanoyl)-4-hydroxy-N-((S)-1-(4-(2-methyl-1H-imidazol-1-yl)phenyl)ethyl)pyrrolidine-2-carboxamide]	< 2.5	> 75
Cc1ncsc1-c1ccc([C@H](C)NC(=O)[C@@H]2C[C@@H](O)CN2C(=O)[C@@H](c2cc(OC/C=C/c3ccc(O[C@H]4C[C@H](Oc5cc(N6C7CCC6CN(c6cc(-c8ccccc8O)nnc6N)C7)ccn5)C4)cn3)no2)C(C)C)cc1 [compound 86, (2S,4R)-1-((2R)-2-(3-(((E)-3-(5-((1r,3R)-3-((4-(3-(3-amino-6-(2-hydroxyphenyl)pyridazin-4-yl)-3,8-diazabicyclo[3.2.1]octan-8-yl)pyridin-2-yl)oxy)cyclobutoxy)pyridin-2-yl)allyl)oxy)isoxazol-5-yl)-3-methylbutanoyl)-4-hydroxy-N-((S)-1-(4-(4-methylthiazol-5-yl)phenyl)ethyl)pyrrolidine-2-carboxamide]	< 2.5	> 75
Cc1ncsc1-c1ccc([C@H](CO)NC(=O)[C@@H]2C[C@@H](O)CN2C(=O)[C@@H](c2cc(OCCN3CCN(CCOc4cc(N5C6CCC5CN(c5cc(-c7ccccc7O)nnc5N)C6)ccn4)CC3)no2)C(C)C)cc1 [compound 100, (2S,4R)-1-((2R)-2-(3-(2-(4-(2-((4-(3-(3-amino-6-(2-hydroxyphenyl)pyridazin-4-yl)-3,8-diazabicyclo[3.2.1]octan-8-yl)pyridin-2-yl)oxy)ethyl)piperazin-1-yl)ethoxy)isoxazol-5-yl)-3-methylbutanoyl)-4-hydroxy-N-((R)-2-hydroxy-1-(4-(4-methylthiazol-5-yl)phenyl)ethyl)pyrrolidine-2-carboxamide]	< 2.5	> 75
Cc1ncsc1-c1ccc([C@@H](NC(=O)[C@@H]2C[C@@H](O)CN2C(=O)[C@@H](c2cc(OCCN3CCN(CCOc4cc(N5C6CCC5CN(c5cc(-c7ccccc7O)nnc5N)C6)ccn4)CC3)no2)C(C)C)C(F)F)cc1 [compound 102, (2S,4R)-1-((2R)-2-(3-(2-(4-(2-((4-(3-(3-amino-6-(2-hydroxyphenyl)pyridazin-4-yl)-3,8-diazabicyclo[3.2.1]octan-8-yl)pyridin-2-yl)oxy)ethyl)piperazin-1-yl)ethoxy)isoxazol-5-yl)-3-methylbutanoyl)-N-((R)-2,2-difluoro-1-(4-(4-methylthiazol-5-yl)phenyl)ethyl)-4-hydroxypyrrolidine-2-carboxamide]	< 2.5	> 75
Cc1ncsc1-c1ccc([C@H](CN)NC(=O)[C@@H]2C[C@@H](O)CN2C(=O)[C@@H](c2cc(OCCN3CCN(CCOc4cc(N5C6CCC5CN(c5cc(-c7ccccc7O)nnc5N)C6)ccn4)CC3)no2)C(C)C)cc1 [compound 103, (2S,4R)-N-((R)-2-amino-1-(4-(4-methylthiazol-5-yl)phenyl)ethyl)-1-((2R)-2-(3-(2-(4-(2-((4-(3-(3-amino-6-(2-hydroxyphenyl)pyridazin-4-yl)-3,8-diazabicyclo[3.2.1]octan-8-yl)pyridin-2-yl)oxy)ethyl)piperazin-1-yl)ethoxy)isoxazol-5-yl)-3-methylbutanoyl)-4-hydroxypyrrolidine-2-carboxamide]	2.5 to 10	> 75
